Laboratory results published in US5288751A, “[(Substituted) phenyalkyl]furylalkynyl-and [substituted) phenyalkyl] thienylalkynyl-N-hydroxyurea inhibitors or leukotriene biosynthesis” (Abbott Laboratories, priority 1992, dated 1994).
pIC50: −log10 of the molar value.

The compounds below were run on Stimulated LTB4 Formation in Human Whole Blood (assay: Calcium ionophore (A23187)-induced LTB4 biosynthesis in human whole blood (in vitro leukotriene biosynthesis inhibition)). Conditions: human heparinized whole blood; 15 min preincubation at 37° C.; A23187 8.3 μM, 30 minutes.
Type: cell-based
Protocol: Inhibition of leukotriene biosynthesis was evaluated in an assay, involving calcium ionophore-induced LTB4 biosynthesis expressed human whole blood. Human heparinized whole blood was preincubated with test compounds or vehicle for 15 min at 37° C. followed by calcium ionophore A23187 challenge (final concentration of 8.3 μM) and the reaction terminated after 30 minutes by adding two volumes of methanol containing prostaglandin B2 as an internal recovery standard. The methanol extract was analyzed for LTB4 using a commercially available radioimmunoassay.
In Vitro Inhibitory Potencies Against Stimulated LTB4 Formation

SMILES | pIC50
CC(C#Cc1ccc(/C=C/c2ccc(F)cc2)o1)N(O)C(N)=O (stereo not drawn) [Example 5, N-[4-(5-{2-[4-Fluorophenyl]ethenyl}fur-2-yl)-1-methyl-2-propynyl]-N-hydroxyurea] | 6.21
Cc1ccc(/C=C/c2ccc(C#CC(C)N(O)C(N)=O)o2)cc1 (stereo not drawn) [Example 9, N-Hydroxy-N-[4-(5-{2-[5-methylphenyl]ethenyl}fur-2-yl)-1-methyl-2-propynyl]urea] | 6.52
C[C@H](C#Cc1ccc(Cc2ccc(F)cc2)s1)N(O)C(N)=O [Example 13, (R)-N-{3-[5-(4-Fluorophenylmethyl)-2-thienyl]-1-methyl-2-propynyl}-N-hydroxyurea] | 7.15
CC(C#Cc1ccc(Cc2ccc(F)cc2)o1)N(O)C(N)=O (stereo not drawn) [Example 1, N-{3-[5-(4-Fluorophenylmethyl)fur-2-yl]-1-methyl-2-propynyl}-N-hydroxyurea] | 7.22
CC(C#Cc1ccc(/C=C/c2ccccn2)o1)N(O)C(N)=O (stereo not drawn) [Example 7, N-Hydroxy-N-[4-(5-{2-[2-pyridyl]ethenyl}fur-2-yl)-1-methyl-2-propynyl]urea] | 6.46
CC(C#Cc1ccc(Cc2ccc(F)cc2)s1)N(O)C(N)=O (stereo not drawn) [Example 12, N-{3-[5-(4-Fluorophenylmethyl)-2-thienyl]-1-methyl-2-propynyl}-N-hydroxyurea] | 7.15

Same assay, conditions: human heparinized whole blood; A23187 8.3 μM, 30 minutes; test concentration not stated

SMILES | % inhibition of stimulated LTB4 formation in human whole blood [%]
CC(C#Cc1ccc(/C=C/c2cccnc2)o1)N(O)C(N)=O (stereo not drawn) [Example 4, N-Hydroxy-N-[4-(5-{2-[3-pyridyl]ethenyl}fur-2-yl)-1-methyl-2-propynyl]urea] | 39
CC(C#Cc1ccc(C(=O)c2ccc(F)cc2)o1)N(O)C(N)=O (stereo not drawn) [Example 2] | 72
CC(C#Cc1ccc(/C=C/c2ccc(F)cc2)s1)N(O)C(N)=O (stereo not drawn) [Example 8] | 62
CC(C#Cc1ccc(/C=C/c2ccccc2)o1)N(O)C(N)=O (stereo not drawn) [Example 6, N-Hydroxy-N-[4-(5-{2-phenylethenyl}fur-2-yl)-1-methyl-2-propynyl]urea] | 40

The compounds below were run on biosynthesis of leukotrienes (peritoneal fluid leukotriene levels) (assay: Inhibition of leukotriene biosynthesis in vivo, rat peritoneal anaphylaxis model, oral administration). Conditions: single 30 μmol/kg oral dose, gavage one hour prior to antigen challenge, 15 minutes after challenge.
Protocol: Inhibition of the biosynthesis of leuktrienes in vivo after oral administration of compound was determined using a rat peritoneal anaphylaxis model in a similar manner as that described by Young and coworkers (Young, P. R.; Dyer, R. D.; Carter, G. W., Fed. Proc., Fed. Am. Soc. Exp. Biol. 1985, 44: 1185). In this model rats were injected intraperitoneally (ip) with rabbit antibody to bovine serum albumin (BSA) and three hours later injected ip with BSA to induce an antigen-antibody response. Rats were sacrificed 15 minutes after this challenge and the peritoneal fluids were collected and analyzed for leukotriene levels. Test compounds were administered by gavage one hour prior to the antigen challenge. Percent inhibition values were determined by comparing the treatment group to the mean of the control group. Compounds of this invention prevent the formation of leukotrienes in this model after oral administration in a range of 1-200 μmol/kg.

SMILES | % inhibition of leukotriene formation in vivo [%]
CC(C#Cc1ccc(Cc2ccc(F)cc2)o1)N(O)C(N)=O (stereo not drawn) [Example 1, N-{3-[5-(4-Fluorophenylmethyl)fur-2-yl]-1-methyl-2-propynyl}-N-hydroxyurea] | 68
CC(C#Cc1ccc(Cc2ccc(F)cc2)s1)N(O)C(N)=O (stereo not drawn) [Example 12, N-{3-[5-(4-Fluorophenylmethyl)-2-thienyl]-1-methyl-2-propynyl}-N-hydroxyurea] | 72
